Measured values from patent publication US9296741B2, “Bromodomain inhibitors” (priority 2012, dated 2016).

Columns and labels:
[1] = system: breast cancer cell line MX-1; assay: MX-1 cell line proliferation assay; format: cell-based, human; details: Homo sapiens, MX1, 72 h; MX-1 cells, 3-day proliferation, Cell Titer Glo; read-out: Cellular proliferation: EC50
[2] = Mouse liver microsome stability assay; format: in vitro ADME
[3] = Human liver microsome stability assay; format: in vitro ADME; details: both sexes
[4] = Rat liver microsome stability assay; format: in vitro ADME; details: rat liver microsomes (male Sprague-Dawley), 0.5 μM test compound, pH 7.4, 37° C.; for half-life at 0.5 μM: 0.25 mg/mL microsomal protein, read-out: Stability in rat liver microsomes (t1/2 in minutes)
[5] = target: human BRD4 first bromodomain (BDI_K57-E168) (Homo sapiens (Human), UniProt O60885); assay: TR-FRET bromodomain binding assay, BRD4 first bromodomain
[6] = target: human BRD4 second bromodomain (BDII_E352-M457) (Homo sapiens (Human), UniProt O60885); assay: TR-FRET bromodomain binding assay, BRD4 second bromodomain
[7] = male, CD1, mouse, microsomes, pH 7.4

| Structure (SMILES) | EC50 [1] | half-life at 0.5 μM [2, 7] | half-life at 0.5 μM ([3]; human, microsomes, pH 7.4) | half-life at 0.5 μM [4] | Stability in rat liver microsomes (t1/2 in minutes) ([4]; […] microsomal protein) | Ki [5] | Ki [6] | half-life at 0.5 μM ([2]; mouse liver microsomes (male CD1), 0.5 μM test compound, 0.25 mg/mL microsomal protein, pH 7.4, 37° C., read-out: Stability in mouse liver microsomes (t1/2 in minutes)) | half-life at 0.5 μM ([3]; human liver microsomes, 0.5 μM test compound, 0.25 mg/mL microsomal protein, pH 7.4, 37° C., read-out: Stability in human liver microsomes (t1/2 in minutes)) |
| --- | --- | --- | --- | --- | --- | --- | --- | --- | --- |
| Cn1cc(-c2ccccc2CN2CCOCC2)c2cc[nH]c2c1=O [Example 12, 6-methyl-4-[2-(morpholin-4-ylmethyl)phenyl]-1,6-dihydro-7H-pyrrolo[2,3-c]pyridin-7-one] | > 3000 nM | 33 min | 51 min | 10 min | – | – | – | – | – |
| CCNC(=O)Cc1ccc(OCc2ccccc2)c(-c2cn(C)c(=O)c3[nH]ccc23)c1 [Example 46, 2-[4-(benzyloxy)-3-(6-methyl-7-oxo-6,7-dihydro-1H-pyrrolo[2,3-c]pyridin-4-yl)phenyl]-N-ethylacetamide] | 588 nM | 13 min | 10 min | 4 min | – | – | – | – | – |
| CCOC(=O)c1cc2c(-c3cc(N)ccc3Oc3ccccc3)nn(C)c(=O)c2[nH]1 [Example 74, ethyl 4-(5-amino-2-phenoxyphenyl)-6-methyl-7-oxo-6,7-dihydro-1H-pyrrolo[2,3-d]pyridazine-2-carboxylate] | 275 nM | 5 min | 17 min | 3 min | – | – | – | – | – |
| CCCS(=O)(=O)Nc1ccc(OC2CCOC2)c(-c2cn(C)c(=O)c3[nH]ccc23)c1 (centres unmarked) [Example 92, N-[3-(6-methyl-7-oxo-6,7-dihydro-1H-pyrrolo[2,3-c]pyridin-4-yl)-4-(tetrahydrofuran-3-yloxy)phenyl]propane-1-sulfonamide] | 84 nM | 11 min | 97 min | 20 min | – | – | – | – | – |
| CCCS(=O)(=O)Nc1ccc(OC2CCC(F)(F)CC2)c(-c2cn(C)c(=O)c3[nH]ccc23)c1 [Example 102, N-{4-[(4,4-difluorocyclohexyl)oxy]-3-(6-methyl-7-oxo-6,7-dihydro-1H-pyrrolo[2,3-c]pyridin-4-yl)phenyl}propane-1-sulfonamide] | 61.5 nM | 8 min | 36 min | 3 min | – | – | – | – | – |
| Cn1cc(-c2cc(NS(=O)(=O)CC(F)(F)F)ccc2OC2CCC(F)(F)CC2)c2cc[nH]c2c1=O [Example 103, N-{4-[(4,4-difluorocyclohexyl)oxy]-3-(6-methyl-7-oxo-6,7-dihydro-1H-pyrrolo[2,3-c]pyridin-4-yl)phenyl}-2,2,2-trifluoroethanesulfonamide] | 33.8 nM | 37 min | 47 min | 16 min | – | – | – | – | – |
| CNS(=O)(=O)c1cnc(Nc2ccccc2)c(-c2cn(C)c(=O)c3[nH]ccc23)c1 [Example 112, N-methyl-5-(6-methyl-7-oxo-6,7-dihydro-1H-pyrrolo[2,3-c]pyridin-4-yl)-6-(phenylamino)pyridine-3-sulfonamide] | 240 nM | 51 min | 49 min | 28 min | – | – | – | – | – |
| CC1CC1COc1ccc(S(C)(=O)=O)cc1-c1cn(C)c(=O)c2[nH]ccc12 (centres unmarked) [Example 223, 6-methyl-4-{2-[(2-methylcyclopropyl)methoxy]-5-(methylsulfonyl)phenyl}-1,6-dihydro-7H-pyrrolo[2,3-c]pyridin-7-one] | 13.3 nM | 48 min | 54 min | 24 min | – | – | – | – | – |
| Cn1cc(-c2cc(C3=CCNCC3)ccc2OCC2CC2)c2cc[nH]c2c1=O [Example 340, 4-[2-(cyclopropylmethoxy)-5-(1,2,3,6-tetrahydropyridin-4-yl)phenyl]-6-methyl-1,6-dihydro-7H-pyrrolo[2,3-c]pyridin-7-one] | – | – | – | 4 min | – | 942 nM | 1250 nM | 9 min | > 120 min |
| CCS(=O)(=O)Nc1ccc(Oc2ccc(F)cc2F)c(-c2cn(C)c(=O)c3[nH]cc(CN4CCOCC4)c23)c1 [Example 350, N-{4-(2,4-difluorophenoxy)-3-[6-methyl-3-(morpholin-4-ylmethyl)-7-oxo-6,7-dihydro-1H-pyrrolo[2,3-c]pyridin-4-yl]phenyl}ethanesulfonamide] | – | 23 min | 59 min | 32 min | – | 1400 nM | 505 nM | – | – |

More lines, main results first:

| EC50 [1] | half-life at 0.5 μM [2, 7] | half-life at 0.5 μM ([3]; human, microsomes, pH 7.4) | half-life at 0.5 μM [4] | Stability in rat liver microsomes (t1/2 in minutes) ([4]; […] microsomal protein) | Ki [5] | Ki [6] | Structure (SMILES) | half-life at 0.5 μM ([2]; mouse liver microsomes (male CD1), 0.5 μM test compound, 0.25 mg/mL microsomal protein, pH 7.4, 37° C., read-out: Stability in mouse liver microsomes (t1/2 in minutes)) | half-life at 0.5 μM ([3]; human liver microsomes, 0.5 μM test compound, 0.25 mg/mL microsomal protein, pH 7.4, 37° C., read-out: Stability in human liver microsomes (t1/2 in minutes)) |
| --- | --- | --- | --- | --- | --- | --- | --- | --- | --- |
| 283 nM | 16 min | 31 min | 18 min | – | – | – | Cn1cc(-c2cc(C(=O)Nc3nccs3)ccc2Oc2ccccc2)c2cc[nH]c2c1=O [Example 17, 3-(6-methyl-7-oxo-6,7-dihydro-1H-pyrrolo[2,3-c]pyridin-4-yl)-4-phenoxy-N-(1,3-thiazol-2-yl)benzamide] | – | – |
| 167 nM | 6 min | 13.1 min | – | 1 min | – | – | CCOC(=O)c1ccc(NC2CCCC2)c(-c2cn(C)c(=O)c3[nH]ccc23)c1 [Example 40, ethyl 4-(cyclopentylamino)-3-(6-methyl-7-oxo-6,7-dihydro-1H-pyrrolo[2,3-c]pyridin-4-yl)benzoate] | – | – |
| 233 nM | 3 min | – | 2 min | – | – | – | COC(=O)Cc1ccc(OCc2ccccc2)c(-c2cn(C)c(=O)c3[nH]ccc23)c1 [Example 45, methyl [4-(benzyloxy)-3-(6-methyl-7-oxo-6,7-dihydro-1H-pyrrolo[2,3-c]pyridin-4-yl)phenyl]acetate] | – | – |
| 200 nM | 13 min | 25 min | 9 min | – | – | – | Cn1cc(-c2cc(C(=O)N3CCCC3)ccc2Oc2ccc(F)cc2F)c2cc[nH]c2c1=O [Example 55, 4-[2-(2,4-difluorophenoxy)-5-(pyrrolidin-1-ylcarbonyl)phenyl]-6-methyl-1,6-dihydro-7H-pyrrolo[2,3-c]pyridin-7-one] | – | – |
| 478 nM | 4 min | 9 min | 3 min | – | – | – | CCNc1ccc(Oc2ccccc2)c(-c2nn(C)c(=O)c3[nH]c(C(=O)OCC)cc23)c1 [Example 75, ethyl 4-[5-(ethylamino)-2-phenoxyphenyl]-6-methyl-7-oxo-6,7-dihydro-1H-pyrrolo[2,3-d]pyridazine-2-carboxylate] | – | – |
| 14 nM | 28 min | 26 min | 9 min | – | – | – | CNS(=O)(=O)c1cnc(NC2CCCCC2)c(-c2cn(C)c(=O)c3[nH]ccc23)c1 [Example 97, 6-(cyclohexylamino)-N-methyl-5-(6-methyl-7-oxo-6,7-dihydro-1H-pyrrolo[2,3-c]pyridin-4-yl)pyridine-3-sulfonamide] | – | – |
| 107 nM | 60 min | 77 min | 71 min | – | – | – | Cn1cc(-c2cc(NS(=O)(=O)CC(F)(F)F)ccc2OC2CCOCC2)c2cc[nH]c2c1=O [Example 100, 2,2,2-trifluoro-N-[3-(6-methyl-7-oxo-6,7-dihydro-1H-pyrrolo[2,3-c]pyridin-4-yl)-4-(tetrahydro-2H-pyran-4-yloxy)phenyl]ethanesulfonamide] | – | – |
| 46.8 nM | 4 min | 39 min | 8 min | – | – | – | CCCS(=O)(=O)Nc1ccc(OC2CCCOC2)c(-c2cn(C)c(=O)c3[nH]ccc23)c1 (centres unmarked) [Example 106, N-[3-(6-methyl-7-oxo-6,7-dihydro-1H-pyrrolo[2,3-c]pyridin-4-yl)-4-(tetrahydro-2H-pyran-3-yloxy)phenyl]propane-1-sulfonamide] | – | – |
| 31 nM | 8 min | 71 min | 16 min | – | – | – | Cn1cc(-c2cc(NS(=O)(=O)CC(F)(F)F)ccc2OC2CCCOC2)c2cc[nH]c2c1=O (centres unmarked) [Example 107, 2,2,2-trifluoro-N-[3-(6-methyl-7-oxo-6,7-dihydro-1H-pyrrolo[2,3-c]pyridin-4-yl)-4-(tetrahydro-2H-pyran-3-yloxy)phenyl]ethanesulfonamide] | – | – |
| 104 nM | 4 min | 5 min | 10 min | – | – | – | Cn1cc(-c2cc(S(C)(=O)=O)ccc2Oc2cccc3cnccc23)c2cc[nH]c2c1=O [Example 161, 4-[2-(isoquinolin-5-yloxy)-5-(methylsulfonyl)phenyl]-6-methyl-1,6-dihydro-7H-pyrrolo[2,3-c]pyridin-7-one] | – | – |
| 115 nM | 5 min | 12 min | 7 min | – | – | – | CN(C)c1cccc(Oc2ccc(S(C)(=O)=O)cc2-c2cn(C)c(=O)c3[nH]ccc23)c1 [Example 180, 4-{2-[3-(dimethylamino)phenoxy]-5-(methylsulfonyl)phenyl}-6-methyl-1,6-dihydro-7H-pyrrolo[2,3-c]pyridin-7-one] | – | – |
| – | 6 min | 81 min | 4 min | – | 1600 nM | 1290 nM | Cn1cc(-c2cc(CN3CCCC3)ccc2OCC2CC2)c2cc[nH]c2c1=O [Example 314, 4-[2-(cyclopropylmethoxy)-5-(pyrrolidin-1-ylmethyl)phenyl]-6-methyl-1,6-dihydro-7H-pyrrolo[2,3-c]pyridin-7-one] | – | – |
| – | > 120 min | > 120 min | > 120 min | – | 3.2 nM | 1.2 nM | CCS(=O)(=O)Nc1cc(-c2cn(C)c(=O)c3[nH]ccc23)c(Oc2ccc(F)cc2F)cc1C#N [Example 324, N-[2-cyano-4-(2,4-difluorophenoxy)-5-(6-methyl-7-oxo-6,7-dihydro-1H-pyrrolo[2,3-c]pyridin-4-yl)phenyl]ethanesulfonamide] | – | – |
